According to patent US8927500B2, “Peptidomimetic macrocycles” (Aileron Therapeutics, Inc., priority 2012, dated 2015):
Where a SMILES comes first, the peptide text is derived from it. Bridges are numbered along the chain shown (N, C = ends). [ ]: non-standard residue; d: D form. Trp(6-Cl) = N[C@@H](Cc1c[nH]c2cc(Cl)ccc12)C(=O)O; R8 = C=CCCCCCC[C@@](C)(N)C(=O)O; hLeu = CC(C)CC[C@H](N)C(=O)O; S5 = C=CCCC[C@](C)(N)C(=O)O

Assays:
SJSA-1 cells = assay: Cell lysis by peptidomimetic macrocycles (LDH release); assay type: cell-based; conditions: 1 h at 37C
Caspase 3 = Caspase 3 detection assay in SJSA1 cells; assay type: cell-based; conditions: 48 h, Caspase 3 activation over DMSO-treated cells; for caspase 0.3 uM: 0.3 uM peptide; for caspase 3 uM: 3 uM peptide; for caspase 10 uM: 10 uM peptide; for caspase 30 uM: 30 uM peptide
MDMX = target: T1, MDMX (Homo sapiens, UniProt O15151); assay: Competitive fluorescence polarization assay for MDMX; assay type: binding; conditions: competitive FP assay; for IC50: read-out: IC50 (MDMX); for Ki: read-out: Ki (MDMX)
T1 sequence (O15151 1-125): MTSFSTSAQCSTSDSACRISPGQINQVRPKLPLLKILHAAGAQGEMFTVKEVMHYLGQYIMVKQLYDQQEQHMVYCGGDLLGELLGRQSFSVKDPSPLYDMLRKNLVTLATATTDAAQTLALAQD

MDM2 = MDM2 (Homo sapiens, UniProt Q00987); assay: Competitive fluorescence polarization assay for MDM2; assay type: binding; conditions: competitive FP assay, MDM2; for IC50: read-out: IC50 (MDM2); for Ki: read-out: Ki (MDM2)
MDM2, sequence (Q00987 1-125): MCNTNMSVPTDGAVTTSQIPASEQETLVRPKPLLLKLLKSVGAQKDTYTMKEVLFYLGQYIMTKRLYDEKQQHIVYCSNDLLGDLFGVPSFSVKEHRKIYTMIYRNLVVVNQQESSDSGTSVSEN

| Structure (SMILES) | IC50 (MDMX) | Ki (MDMX) | IC50 (MDM2) | Ki (MDM2) | 6.25 uM % Lysed cells (1 h LDH) (SJSA-1 cells) | 25 uM % Lysed cells (1 h LDH) (SJSA-1 cells) | 50 uM % Lysed cells (1 h LDH) (SJSA-1 cells) | caspase 0.3 uM (Caspase 3) | caspase 3 uM (Caspase 3) | caspase 10 uM (Caspase 3) | caspase 30 uM (Caspase 3) |
| --- | --- | --- | --- | --- | --- | --- | --- | --- | --- | --- | --- |
| CC(=O)N[C@@H](CC(C)C)C(=O)N[C@H](C(=O)N[C@@H](Cc1ccccc1)C(=O)N[C@]1(C)CCCCCCC=CCCC[C@@](C)(C(=O)N[C@@H](CO)C(=O)N[C@H](C(=O)NCC(N)=O)C(C)C)NC(=O)[C@H](CC(C)C)NC(=O)[C@H](CCC(N)=O)NC(=O)[C@H](C)NC(=O)[C@H](Cc2c[nH]c3ccccc23)NC(=O)[C@H](Cc2ccc(O)cc2)NC(=O)[C@H](C)NC1=O)[C@@H](C)O [compound 123] (Ac-LTF[R8]AYWAQL[S5]SVG-NH2; staple 4-11) | 100 to 1000 nM | 10 to 100 nM | < 10 nM | < 10 nM | −2% | 5% | 3% | 1 | 1 | 6 | 14 |
| CC(=O)N[C@@H](CCC(=O)O)C(=O)N[C@H](C(=O)N[C@@H](Cc1ccccc1)C(=O)N[C@]1(C)CCCCCCC=CCCC[C@@](C)(C(=O)N[C@@H](CO)C(=O)N[C@@H](C)C(=O)N[C@@H](C)C(N)=O)NC(=O)[C@H](CC(C)C)NC(=O)[C@H](CCC(N)=O)NC(=O)[C@H](C)NC(=O)[C@H](Cc2c[nH]c3ccccc23)NC(=O)[C@H](Cc2ccc(O)cc2)NC(=O)[C@H](C(C)C)NC1=O)[C@@H](C)O [compound 125] (Ac-ETF[R8]VYWAQL[S5]SAA-NH2; staple 4-11) | 100 to 1000 nM | 10 to 100 nM | < 10 nM | < 10 nM | 0% | 0% | 2% | 1 | 3 | 9 | 29 |
| CC(=O)N[C@@H](CCC(=O)O)C(=O)N[C@H](C(=O)N[C@@H](Cc1ccccc1)C(=O)N[C@]1(C)CCCCCCC=CCCC[C@@](C)(C(=O)N[C@@H](CO)C(=O)N[C@H](C(=O)N[C@@H](C)C(N)=O)C(C)C)NC(=O)[C@H](CC(C)C)NC(=O)[C@H](CCC(N)=O)NC(=O)[C@H](C)NC(=O)[C@H](Cc2c[nH]c3ccccc23)NC(=O)[C@H](Cc2ccc(O)cc2)NC(=O)[C@H](C(C)C)NC1=O)[C@@H](C)O [compound 126] (Ac-ETF[R8]VYWAQL[S5]SVA-NH2; staple 4-11) | 100 to 1000 nM | 10 to 100 nM | < 10 nM | < 10 nM | 1% | 1% | 1% | 1 | 1 | 6 | 30 |
| CC(=O)N[C@@H](CCC(=O)O)C(=O)N[C@H](C(=O)N[C@@H](Cc1ccccc1)C(=O)N[C@]1(C)CCCCCCC=CCCC[C@@](C)(C(=O)N[C@@H](CO)C(=O)N[C@H](C(=O)N[C@@H](CO)C(N)=O)C(C)C)NC(=O)[C@H](CC(C)C)NC(=O)[C@H](CCC(N)=O)NC(=O)[C@H](C)NC(=O)[C@H](Cc2c[nH]c3ccccc23)NC(=O)[C@H](Cc2ccc(O)cc2)NC(=O)[C@H](C(C)C)NC1=O)[C@@H](C)O [compound 130] (Ac-ETF[R8]VYWAQL[S5]SVS-NH2; staple 4-11) | 100 to 1000 nM | 10 to 100 nM | < 10 nM | < 10 nM | 1% | 0% | −1% | 1 | 2 | 6 | 17 |
| CC(=O)N[C@@H](CCC(=O)O)C(=O)N[C@H](C(=O)N[C@@H](Cc1ccccc1)C(=O)N[C@]1(C)CCCCCCC=CCCC[C@@](C)(C(=O)N[C@@H](CO)C(=O)N[C@@H](C)C(=O)N[C@@H](C)C(N)=O)NC(=O)[C@H](CC(C)C)NC(=O)[C@H](CCC(N)=O)NC(=O)[C@H](C)NC(=O)[C@H](Cc2c[nH]c3ccccc23)NC(=O)[C@H](Cc2ccc(O)cc2)NC(=O)[C@H](CCC(=O)O)NC1=O)[C@@H](C)O [compound 161] (Ac-ETF[R8]EYWAQL[S5]SAA-NH2; staple 4-11) | 100 to 1000 nM | 10 to 100 nM | < 10 nM | < 10 nM | 1% | −1% | 0% | 2 | 8 | 14 | 22 |
| CC[C@H](C)[C@H](NC(=O)[C@H](C)NC(=O)[C@H](C)NC(=O)[C@]1(C)CCCC=CCCCCCC[C@@](C)(NC(=O)[C@H](Cc2ccccc2)NC(=O)[C@@H](NC(=O)[C@H](CC(C)C)NC(C)=O)[C@@H](C)O)C(=O)N[C@@H](C)C(=O)N[C@@H](Cc2c[nH]cn2)C(=O)N[C@@H](Cc2c[nH]c3ccccc23)C(=O)N[C@@H](C)C(=O)N[C@@H](CCC(N)=O)C(=O)N[C@@H](CC(C)C)C(=O)N1)C(=O)N[C@H](C)C(N)=O [compound 170] (Ac-LTF[R8]AHWAQL[S5]AAI[dA]-NH2; staple 4-11) | 100 to 1000 nM | 10 to 100 nM | < 10 nM | < 10 nM | 2% | 1% | −1% | 1 | 1 | 16 | 20 |

Now from value to compound, other results behind:

| IC50 (MDMX) | Ki (MDMX) | IC50 (MDM2) | Ki (MDM2) | Structure (SMILES) | 6.25 uM % Lysed cells (1 h LDH) (SJSA-1 cells) | 25 uM % Lysed cells (1 h LDH) (SJSA-1 cells) | 50 uM % Lysed cells (1 h LDH) (SJSA-1 cells) | caspase 0.3 uM (Caspase 3) | caspase 3 uM (Caspase 3) | caspase 10 uM (Caspase 3) | caspase 30 uM (Caspase 3) |
| --- | --- | --- | --- | --- | --- | --- | --- | --- | --- | --- | --- |
| 100 to 1000 nM | 10 to 100 nM | < 10 nM | < 10 nM | CC(=O)N[C@@H](CC(C)C)C(=O)N[C@H](C(=O)N[C@@H](Cc1ccccc1)C(=O)N[C@]1(C)CCCCCC/C=C/CCC[C@@](C)(C(=O)N[C@@H](CO)C(=O)N[C@@H](C)C(=O)N[C@@H](C)C(N)=O)NC(=O)[C@H](CC(C)C)NC(=O)[C@H](CCC(N)=O)NC(=O)[C@H](C)NC(=O)[C@H](Cc2c[nH]c3cc(Cl)ccc23)NC(=O)[C@H](Cc2ccc(O)cc2)NC(=O)[C@H](C)NC1=O)[C@@H](C)O [compound 99] (Ac-LTF[R8]AY[Trp(6-Cl)]AQL[S5]SAA-NH2; staple (E) 4-11) | 1.5% | 2% | 3.5% | 1 | 7 | 31 | 33 |
| 100 to 1000 nM | 10 to 100 nM | 10 to 100 nM | < 10 nM | CC(=O)N[C@@H](CC(C)C)C(=O)N[C@H](C(=O)N[C@@H](Cc1ccccc1)C(=O)N[C@]1(C)CCCCCC/C=C\CCC[C@@](C)(C(=O)N[C@@H](CO)C(=O)N[C@@H](C)C(=O)N[C@@H](C)C(N)=O)NC(=O)[C@H](CCC(C)C)NC(=O)[C@H](CCC(N)=O)NC(=O)[C@H](C)NC(=O)[C@H](Cc2c[nH]c3ccccc23)NC(=O)[C@H](Cc2ccc(O)cc2)NC(=O)[C@H](C)NC1=O)[C@@H](C)O [compound 114] (Ac-LTF[R8]AYWAQ[hLeu][S5]SAA-NH2; staple (Z) 4-11) | 3% | 4% | 9% | 1 | 6 | 28 | 34 |
| 100 to 1000 nM | 10 to 100 nM | < 10 nM | < 10 nM | CC(=O)N[C@@H](CC(C)C)C(=O)N[C@H](C(=O)N[C@@H](Cc1ccccc1)C(=O)N[C@]1(C)CCCCCC/C=C/CCC[C@@](C)(C(=O)N[C@@H](CO)C(=O)N[C@@H](C)C(=O)N[C@@H](C)C(N)=O)NC(=O)[C@H](CCC(C)C)NC(=O)[C@H](CCC(N)=O)NC(=O)[C@H](C)NC(=O)[C@H](Cc2c[nH]c3ccccc23)NC(=O)[C@H](Cc2ccc(O)cc2)NC(=O)[C@H](C)NC1=O)[C@@H](C)O [compound 115] (Ac-LTF[R8]AYWAQ[hLeu][S5]SAA-NH2; staple (E) 4-11) | 0% | −1% | 6% | 1 | 10 | 26 | 32 |
| 100 to 1000 nM | 10 to 100 nM | < 10 nM | < 10 nM | CC(=O)N[C@@H](CC(C)C)C(=O)N[C@H](C(=O)N[C@@H](Cc1ccccc1)C(=O)N[C@]1(C)CCCCCCC=CCCC[C@@](C)(C(=O)N[C@@H](CO)C(=O)N[C@H](C(=O)N[C@@H](CO)C(N)=O)C(C)C)NC(=O)[C@H](CC(C)C)NC(=O)[C@H](CCC(N)=O)NC(=O)[C@H](C)NC(=O)[C@H](Cc2c[nH]c3ccccc23)NC(=O)[C@H](Cc2ccc(O)cc2)NC(=O)[C@H](C)NC1=O)[C@@H](C)O [compound 121] (Ac-LTF[R8]AYWAQL[S5]SVS-NH2; staple 4-11) | 1% | 1% | 7% | 1 | 5 | 19 | 30 |
| 100 to 1000 nM | 10 to 100 nM | < 10 nM | < 10 nM | CC(=O)N[C@@H](CC(C)C)C(=O)N[C@H](C(=O)N[C@@H](Cc1ccccc1)C(=O)N[C@]1(C)CCCCCCC=CCCC[C@@](C)(C(=O)N[C@@H](CO)C(=O)N[C@@H](C)C(=O)N[C@@H](CO)C(N)=O)NC(=O)[C@H](CC(C)C)NC(=O)[C@H](CCC(N)=O)NC(=O)[C@H](C)NC(=O)[C@H](Cc2c[nH]c3ccccc23)NC(=O)[C@H](Cc2ccc(O)cc2)NC(=O)[C@H](C)NC1=O)[C@@H](C)O [compound 122] (Ac-LTF[R8]AYWAQL[S5]SAS-NH2; staple 4-11) | 1% | 0% | 6% | 1 | 2 | 15 | 30 |
